Common to all, as to type: cell-based
Test [1] deals with T1, A431 cells EGFR-TK phosphorylation stimulated by EGF (Homo sapiens, UniProt P00533).
T1 construct: against A431 cells EGFR-TK; endogenous in cells; host or cells: A431 cells
In words: Inhibition of cellular EGFR-TK phosphorylation stimulated by EGF in A431 cells. As to conditions: for EC50: A431 cells EGFR-TK phosphorylation stimulated by EGF (Table 4); for inhibition at 3 µM: A-431, concentration of 3 μM, A431 cells, EGF stimulated, one-time measurement at a single concentration (preliminary selection), NA = No activity, read-out: Inhibition Percent (%). The protocol:
Inhibition Experiment of Cellular Epidermal Growth Factor Receptor Tyrosine Kinase
1) A431 cells were cultured in a medium which was prepared by adding 10% FCS into another medium comprising 50% DMEM and 50% F12.
2) A431 cells grown in six-well plates were cultured in a serum-free medium for 24 hours. During the 24 hour period the medium was replenished once after 12 hours.
3) A solution containing a compound to be assessed was added the A431 cells and the cells were cultured for 2 hours, supplemented twice by a medium free of the compound, and then EGF (100 ng/well) was added, and cultured for 5 minutes.
4) A431 cell homogenate was prepared by Laemili buffer which comprised 2% sodium dodecyl sulfonate (SDS), 5% 2-mercaptoethanol, 10% glycerol and 5 mM Tris (pH 6.8).
5) The A431 cell homogenate was heated for 5 minutes at 100° C.
6) Proteins in the A431 cell homogenates were separated by PAGE and transferred onto a nitrocellulose membrane, and an infrared reading was obtained.

The test system of test [2] is A431 cells. The test can be described thus: Cell growth inhibition assay (MTS assay), A431. As to conditions: Homo sapiens, A-431; A431 cells; MTS, 48 hours; read-out: Growth inhibition activity EC50.
Test [3] has as its system A431 cells. In words: A431 cell growth inhibition assay (MTT assay). As to conditions: Homo sapiens, A-431, concentration of 3 μM, 72 hours, read-out: Inhibition Percent (%). How it is done: A431 Cell Growth Inhibition Assay (MTT Assay)
A431, an epidermoid carcinoma cell line; The Cell Bank, Committee on Type Culture Collection Chinese Academy of Science, Shanghai.
Mix prepared medium DMEM and F12 in the proportion of 1:1, then add FBS to a final concentration of 10%.
Dissolved the dried compound sample with 100% DMSO to 2 mM. Then diluted the dissolved compound to 20 μM with cell complete growth medium.
Prior to the assay, cultured the A431 to logarithmic phase, and then removed medium from cell monolayers and wash the cells once with sterilized PBS. Aspriated the PBS and added 2 mL trypsin solution to cover the cell growth surface, removed 1 mL trypsin solution after soaking about 1 minute. Transferred the cell-culture plate to CO2 incubator; incubated at 37° C. for 8 minutes to allow cells to dissociate. After the cells detached, added 4 mL complete growth medium containing FBS with pipette to disperse them off and mixed gently to obtain a homogeneous cell suspension. Aspirated some of the cell suspension to a sterilized polypropylene tube, and determined the cell concentration by counting in a hematocytometer chamber under a microscope. Adjusted the cell concentration with growth medium to obtain 2.5×10^4 cells per milliliter.
Added 100 μL adjusted cell suspension to the 96-well cell-culture plate and occasionally mixed the cell suspension during the seeding process. After seeding cells, incubated the plate at 37° C. overnight with 5% CO2 in the CO2 incubator for cell attachment.
After the cell attachment, added 100 μL prepared compound solutions to the corresponding wells (add PBS to the ambient wells of the plate). The final compound concentrations ranged from 10 μM to 1.52 nM. Incubated the plate at 37° C. with 5% CO2 for 72 hours in the CO2 incubator.
After the exposure to the compound, removed the cell culture supernatant. Then added 100 μL 0.5 mg/mL MTT solution which dissolved in the growth medium without FBS. Incubated the plate at 37° C. with 5% CO2 for another 4 hours to allow the MTT reaction to proceed.
After the MTT reaction, discarded the MTT reaction solution. Added 100 μL DMSO to each well, and the plate was agitated on the plate shaker for several minutes to dissolve the formazan. Then, detected the absorbance at 490 nm using microplate reader.
(Tetrazolium dyes change colour on reduction, which living cells bring about.)

The test system of another test is BT474 cells. In words: BT-474 cell growth inhibition assay (SRB assay). As to conditions: Homo sapiens, concentration of 3 μM, 72 h, read-out: Inhibition Percent (%). How it is done:
BT-474 Cell Growth Inhibition Assay (SRB Assay)
BT-474 human breast cancer cell lines were kindly provided by Dr. Changnian Liu, Pharmaron Beijing Co., Ltd.
BT-474 cells were cultured in 37° C., 5% CO2, saturated humidity until logarithmic phase. Discarded culture medium, washed cells once by PBS. Added 1 ml Trypsin/EDTA solution, stood at 37° C. for 5 min, allowed the cells to detach. Added culture medium, adjusted the cells density to 1×10^5 cells/ml.
Day 0, added 100 μl/well cells suspension to 96-well cell culture plates. Incubated overnight to let the cells attach completely.
Day 1, compounds (2 mM in DMSO as stock solution) was diluted to 20 μM in EMEM. Then a fourfold serial dilution was made. These diluted compounds were made as 10× reaction solutions, and the concentration of DMSO was kept at 1%.
Added 80 μl culture medium and 20 μl 10× compound reaction solution to the testing wells, or vehicle control to the control wells. Co-incubated cells with compounds for another 72 h.
Day 3, fixed cellular protein by the addition of 100 μl/well of 10% TCA (diluting from 50% TCA) at 4° C. for 1 h. Rinsed TCA using plate washer, and washed five times using distilled water. Removed the residual wash solution with a piece of absorbent paper. Added 100 μl/well 0.4% SRB solution, allowed a 15-30 min staining period. Removed the SRB, and washed the culture plates five times using 1% acetic acid. Removed the residual wash solution with a piece of absorbent paper. Air-dried the culture plates, dissolved the protein-bound dye with 100 μl/well of 10 mM Tris base solution. Shook the plates until the dye was dissolved completely.
In general terms: In SRB staining, fixed cells bind dye roughly in proportion to their protein.

T1 sequence (P00533 25-1210): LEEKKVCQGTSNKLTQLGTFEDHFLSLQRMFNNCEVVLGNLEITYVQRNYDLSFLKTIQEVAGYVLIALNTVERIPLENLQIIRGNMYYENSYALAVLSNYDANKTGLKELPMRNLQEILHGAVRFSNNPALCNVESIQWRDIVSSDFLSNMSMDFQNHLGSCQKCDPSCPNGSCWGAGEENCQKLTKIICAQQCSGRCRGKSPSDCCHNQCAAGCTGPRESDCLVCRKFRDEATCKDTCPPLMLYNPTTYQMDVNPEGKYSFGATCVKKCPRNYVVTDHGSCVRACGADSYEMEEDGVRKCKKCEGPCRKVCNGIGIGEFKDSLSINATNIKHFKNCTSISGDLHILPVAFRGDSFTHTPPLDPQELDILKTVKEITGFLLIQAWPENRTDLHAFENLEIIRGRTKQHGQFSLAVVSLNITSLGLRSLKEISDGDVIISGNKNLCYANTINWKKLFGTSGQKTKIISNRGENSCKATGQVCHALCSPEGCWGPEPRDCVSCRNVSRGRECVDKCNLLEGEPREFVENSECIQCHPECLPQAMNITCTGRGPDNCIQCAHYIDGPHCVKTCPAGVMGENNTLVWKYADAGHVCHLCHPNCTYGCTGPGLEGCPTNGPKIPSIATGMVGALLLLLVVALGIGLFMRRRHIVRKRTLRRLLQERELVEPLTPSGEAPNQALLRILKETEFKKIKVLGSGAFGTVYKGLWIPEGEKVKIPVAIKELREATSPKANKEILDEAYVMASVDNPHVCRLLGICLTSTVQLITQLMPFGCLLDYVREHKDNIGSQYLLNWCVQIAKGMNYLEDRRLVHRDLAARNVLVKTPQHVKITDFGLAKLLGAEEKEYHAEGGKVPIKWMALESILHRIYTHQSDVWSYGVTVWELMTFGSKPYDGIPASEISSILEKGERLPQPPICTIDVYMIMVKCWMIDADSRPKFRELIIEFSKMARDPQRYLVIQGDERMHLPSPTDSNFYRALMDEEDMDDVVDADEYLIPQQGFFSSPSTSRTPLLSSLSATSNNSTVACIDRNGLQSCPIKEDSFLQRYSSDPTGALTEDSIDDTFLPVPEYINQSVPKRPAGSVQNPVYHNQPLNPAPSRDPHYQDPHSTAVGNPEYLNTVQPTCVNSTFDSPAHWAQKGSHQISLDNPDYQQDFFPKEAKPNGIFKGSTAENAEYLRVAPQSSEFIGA

The EC50 is the concentration needed to bring the measured effect to its halfway point. As a reminder, the inhibition is the drop in the measured response relative to a control, in per cent. Regarding `C#Cc1cccc(Nc2ncnc3ccc(NC(=O)C=C4CCNCC4)cc23)c1` [Example 3, N-(4-(3-ethynylphenylamino)quinazolin-6-yl)-2-(piperidin-4-ylidene)acetamide], the EC50 stood at 150 nM in test [1] and 2000 nM with A431 cells [2]. Moreover, the inhibition at 3 µM in test [1] stood at 85%.

As to `C#Cc1cccc(Nc2ncnc3cc(OCCCOC)c(NC(=O)C=C4CCNCC4)cc23)c1` [Example 50, N-(4-(3-ethynylphenylamino)-7-(3-methoxypropoxy)quinazolin-6-yl)-2-(piperidin-4-ylidene)acetamide], in test [1], the inhibition at 3 µM turned out to be 95%. The concentration giving a half-maximal response (EC50) in the test on A431 cells [2] was found to be 150 nM.

`C#Cc1cccc(Nc2ncnc3ccc(NC(=O)C=C4CCN(C)CC4)cc23)c1` [Example 4, N-(4-(3-ethynylphenylamino)quinazolin-6-yl)-2-(1-methylpiperidin-4-ylidene)acetamide]: the EC50 in test [1] amounted to 580 nM; in the test with A431 cells [2], 1800 nM. Further, the inhibition at 3 µM in test [1] turned out to be 78%.

In the case of `C#Cc1cccc(Nc2ncnc3ccc(NC(=O)C=C4CCN(CCOC)CC4)cc23)c1` [Example 7, N-(4-(3-ethynylphenylamino)quinazolin-6-yl)-2-(1-(2-methoxyethyl)piperidin-4-ylidene)acetamide], the EC50 turned out to be 400 nM in test [1] and 5000 nM in the test on A431 cells [2]. Besides, in test [1], the inhibition at 3 µM came out at 65%.

Take `O=C(C=C1CCNCC1)Nc1ccc2ncnc(Nc3cccc(Cl)c3)c2c1` [Example 36, N-(4-(3-chlorophenylamino)quinazolin-6-yl)-2-(piperidin-4-ylidene)acetamide]: the 50% effective concentration (EC50) in test [1] was 980 nM; in the test with A431 cells [2], 30000 nM. Also, in test [1], the inhibition at 3 µM was determined as 57%.

Consider `N#Cc1cnc2ccc(N)cc2c1Nc1cccc(Br)c1` [Example 134, 6-amino-4-(3-bromophenylamino)quinoline-3-carbonitrile], for which the inhibition at 3 µM in test [1] is 59%. In addition, the EC50 in the test on A431 cells [2] came to 900 nM.

For `CCOc1cc2ncc(C#N)c(Nc3ccc(OCc4cccc(F)c4)c(Cl)c3)c2cc1NC(=O)C=C1CCN(CCOC)CC1` [Example 163, N-(4-(4-(3-fluorobenzyloxy)-3-chlorophenylamino)-3-cyano-7-ethoxyquinolin-6-yl)-2-(1-(2-methoxyethyl)piperidin-4-ylidene)acetamide], the inhibition at 3 µM with A431 cells [3] came to 40%; with BT474 cells, 87%.

Take `COc1cc2ncc(C#N)c(Nc3ccc(Oc4cccc(F)c4)c(Cl)c3)c2cc1NC(=O)C=C1CCNCC1` [Example 146, N-(4-(3-chloro-4-(3-fluorophenoxy)phenylamino)-3-cyano-7-methoxyquinolin-6-yl)-2-(piperidin-4-ylidene)acetamide]: the inhibition at 3 µM with A431 cells [3] was 52%; in the test with BT474 cells, 85%.

With `CCOc1cc2ncc(C#N)c(Nc3ccc(OCc4ccccn4)c(Cl)c3)c2cc1NC(=O)C=C1CCN(CCOC)CC1` [Example 161, N-(4-(3-chloro-4-(pyridin-2-ylmethoxy)phenylamino)-3-cyano-7-ethoxyquinolin-6-yl)-2-(1-(2-methoxyethyl)piperidin-4-ylidene)acetamide], the inhibition at 3 µM was determined as 49% in the test with A431 cells [3] and 90% in the test on BT474 cells.

In the case of `C#Cc1cccc(Nc2c(C#N)cnc3cc(OCC)c(NC(=O)C=C4CCN(CCOC)CC4)cc23)c1` [Example 159, N-(3-cyano-7-ethoxy-4-(3-ethynylphenylamino)quinolin-6-yl)-2-(1-(2-methoxyethyl)piperidin-4-ylidene)acetamide], the inhibition at 3 µM in the test on A431 cells [3] amounted to 83%; with BT474 cells, 53%.

As for `CCOc1cc2ncc(C#N)c(Nc3ccc(F)c(Cl)c3)c2cc1NC(=O)C=C1CCN(CCOC)CC1` [Example 157, N-(4-(3-chloro-4-fluorophenylamino)-3-cyano-7-ethoxyquinolin-6-yl)-2-(1-(2-methoxyethyl)piperidin-4-ylidene)acetamide], the inhibition at 3 µM came out at 85% with A431 cells [3] and 59% with BT474 cells.

Regarding `COCCN1CCC(=CC(=O)Nc2cc3c(Nc4ccc(OCc5ccccn5)c(Cl)c4)ncnc3cc2OC)CC1` [Example 118, N-(4-(3-chloro-4-(pyridin-2-ylmethoxy)phenylamino)-7-methoxyquinazolin-6-yl)-2-(1-(2-methoxyethyl)piperidin-4-ylidene)acetamide], the inhibition at 3 µM in test [1] is 41%. For the same compound, the EC50 with A431 cells [2] was determined as 1900 nM.

In the case of `COCCOc1cc2ncc(C#N)c(Nc3ccc(F)c(Cl)c3)c2cc1NC(=O)C=C1CCNCC1` [Example 149, N-(4-(3-chloro-4-fluorophenylamino)-3-cyano-7-(2-methoxyethoxy)quinolin-6-yl)-2-(piperidin-4-ylidene)acetamide], the inhibition at 3 µM was determined as 92% in the test with A431 cells [3] and 53% in the test on BT474 cells.

Take `COCCOc1cc2ncc(C#N)c(Nc3ccc(OCc4ccccn4)c(Cl)c3)c2cc1NC(=O)C=C1CCNCC1` [Example 165, N-(4-(3-chloro-4-(pyridin-2-ylmethoxy)phenylamino)-3-cyano-7-(2-methoxyethoxy)quinolin-6-yl)-2-(piperidin-4-ylidene)acetamide]: the values for the inhibition at 3 µM in the test with A431 cells [3] and in the test with BT474 cells were 53% and 87%, respectively.

`C#Cc1cccc(Nc2c(C#N)cnc3cc(OCCOC)c(NC(=O)C=C4CCNCC4)cc23)c1` [Example 169, N-(3-cyano-4-(3-ethynylphenylamino)-7-(2-methoxyethoxy)quinolin-6-yl)-2-(piperidin-4-ylidene)acetamide]: the inhibition at 3 µM with A431 cells [3] worked out at 92%; in the test on BT474 cells, 58%.

Regarding `CCOc1cc2ncc(C#N)c(Nc3ccc(F)c(Cl)c3)c2cc1NC(=O)C=C1CCN(C)CC1` [Example 156, N-(4-(3-chloro-4-fluorophenylamino)-3-cyano-7-ethoxyquinolin-6-yl)-2-(1-methylpiperidin-4-ylidene)acetamide], the inhibition at 3 µM was found to be 89% with A431 cells [3] and 60% with BT474 cells.

On to `COCCOc1cc2ncc(C#N)c(Nc3cccc(Br)c3)c2cc1NC(=O)C=C1CCNCC1` [Example 171, N-(4-(3-bromophenylamino)-3-cyano-7-(2-methoxyethoxy)quinolin-6-yl)-2-(piperidin-4-ylidene)acetamide], for which the inhibition at 3 µM in the test with A431 cells [3] was 86%; in the test on BT474 cells, 60%.

Take `C#Cc1cccc(Nc2c(C#N)cnc3cc(OCC)c(NC(=O)C=C4CCN(C)CC4)cc23)c1` [Example 158, N-(3-cyano-7-ethoxy-4-(3-ethynylphenylamino)quinolin-6-yl)-2-(1-methylpiperidin-4-ylidene)acetamide]: the inhibition at 3 µM is 90% in the test with A431 cells [3] and 57% in the test with BT474 cells.

(Values after patent US8765946B2, “Methods of preparing and using quinazoline and quinoline derivatives” (priority 2006, dated 2014).)
